{"source": "patent US10064840B2", "about": "“Pharmaceutical composition for the treatment of multi-drug resistant infections” (priority 2014, dated 2018)", "assay_type_in_all_cases": "cell-based", "key": {"[1]": {"test_system": "Staphylococcus aureus 1199B (Nor A overexpressing)", "experiment": "Nor A efflux pump inhibition, broth checkerboard combination with ciprofloxacin", "details": "for MEC4 (minimum effective concentration of compound that brings about 4 fold reduction in the MIC of Ciprofloxacin): in combination with ciprofloxacin", "method": "Combination studies were performed by a broth checkerboard method A series of twofold dilutions of test ciprofloxacin in Muller Hinton Broth (pH 7.0) was tested in combination with twofold dilutions of boeravinone B in 96-well microtiter plates. The final concentrations of ciprofloxacin ranged from 0.03 mg/L/ml to 64 mg/L and for boeravinone B from 0.8 mg/L to 50 mg/L. Piperine at a same concentration range as that of boeravinone B was used as standard EPI. Nor A overexpressing derivative of a clinical isolate (SA-1199B) obtained from S. aureus strain ATCC No. 29213 (American Type Culture Collection Manassas, Va., USA) was kindly gifted by Dr G. W. Kaatz (Wayne State University School of Medicine, Detroit, Mich., USA). Bacterial inocula were prepared by adjusting the inoculum density of the overnight grown Staphylococcus aureus 1199B (Nor A overexpressing) to 0.5 McFarland (˜1.5×10^8 CFU/mL of Escherichia coli). These inocula were diluted 1:100 in sterile normal saline and 100 μl of these diluted inocula was dispensed in each well. The final bacterial inoculum reached in each well was equal 5×10^5 CFU/mL. The plates were incubated at 37° C. for 24 hrs. The MIC was read visually as the lowest concentration of ciprofloxacin inhibiting the growth of bacteria as evident from the absence of turbidity."}, "[2]": {"test_system": "Staphylococcus aureus Mupr-1 (Mde A overexpressing)", "experiment": "Mde A efflux pump inhibition, broth checkerboard combination with mupirocin", "details": "for MIC: Staphylococcus aureus", "method": "Staphylococcus aureus Mupr-1 (Mde A overexpressing) was prepared in-house from SA-1199-Wild type clinical isolate which was gifted by Prof. Dr G. W. Kaatz (Wayne State University School of Medicine, Detroit, Mich., USA) by serially passaging SA-1199 strain on mupirocin. Combination studies were performed by a broth checkerboard method. A series of twofold dilutions of test mupirocin in Muller Hinton Broth (pH 7.0) was tested in combination with twofold dilutions of boeravinone B in 96-well microtiter plates. The final concentrations of mupirocin ranged from 0.03 mg/L/ml to 64 mg/L and for boeravinone B from 0.8 mg/L to 50 mg/L. Bacterial inocula were prepared by adjusting the inoculum density of the overnight grown Staphylococcus aureus Mup^r-1 (Mde A overexpressing) to 0.5 McFarland (˜1.5×10^8 CFU/mL of Escherichia coli). Mde A overexpressing derivative S. aureus strain was prepared in lab upon mupirocin treatment (Mup^r-1) from S. aureus strain ATCC No. 29213 (American type culture collection Manassas, Va., USA). These inocula were diluted 1:100 in sterile normal saline and 100 μl of these diluted inocula was dispensed in each well. The final bacterial inoculum reached in each well was equal 5×10^5 CFU/mL. The plates were incubated at 37° C. for 24 hrs. The MIC was read visually as the lowest concentration of mupirocin inhibiting the growth of bacteria as evident from the absence of turbidity. […]"}, "[3]": {"test_system": "Staphylococcus aureus SA-K2191 (Msr A overexpressing)", "experiment": "Msr A efflux pump inhibition, broth checkerboard combination with erythromycin", "method": "Combination studies were performed by a broth checkerboard method. A series of two-fold dilutions of test Erythromycin in Muller Hinton Broth (pH 7.0) was tested in combination with twofold dilutions of boeravinone B in 96-well microtiter plates. The final concentrations of erythromycin ranged from 0.03 mg/L/ml to 64 mg/L and for boeravinone B from 0.8 mg/L to 50 mg/L. MsrA overexpressing S. aureus derivative (RN4220) obtained by transforming with pSK265 into which the gene for MsrA has been cloned from S. aureus ATCC 29213 (American type culture collection Manassas, Va., USA) was kindly gifted by Dr G. W. Kaatz (Wayne State University School of Medicine, Detroit, Mich., USA). Bacterial inocula were prepared by adjusting the inoculum density of the overnight grown Staphylococcus aureus SA-K2191 (Msr A overexpressing) to 0.5 McFarland (˜1.5×10^8 CFU/mL of Escherichia coli). These inocula were diluted 1:100 in sterile normal saline and 100 μl of these diluted inocula was dispensed in each well. The final bacterial inoculum reached in each well was equal 5×10^5 CFU/mL. The plates were incubated at 37° C. for 24 hrs. The MIC was read visually as the lowest concentration of erythromycin inhibiting the growth of bacteria as evident from the absence of turbidity. […]"}, "[4]": {"details": "at 25 μM concentration of boeravinone B"}}, "note": "Like-named read-outs stand apart in the source and are kept apart here.", "data": [{"smiles": "O=C(/C=C/C=C/c1ccc2c(c1)OCO2)N1CCCCC1", "note": "[Piperine, reference compound]", "values": [{"measurement": "MIC of ciprofloxacin in presence of compound", "setting": "[1]; compound concentration 0.7 μM", "value": 8, "unit": "µg/mL"}, {"measurement": "MIC of ciprofloxacin in presence of compound", "setting": "[1]; compound concentration 1.5 μM", "value": 8, "unit": "µg/mL"}, {"measurement": "MIC of ciprofloxacin in presence of compound", "setting": "[1]; compound concentration 3.12 μM", "value": 8, "unit": "µg/mL"}, {"measurement": "MIC of ciprofloxacin in presence of compound", "setting": "[1]; compound concentration 6.25 μM", "value": 8, "unit": "µg/mL"}, {"measurement": "MIC of ciprofloxacin in presence of compound", "setting": "[1]; compound concentration 12.5 μM", "value": 8, "unit": "µg/mL"}, {"measurement": "MIC of ciprofloxacin in presence of compound", "setting": "[1]; compound concentration 25 μM", "value": 4, "unit": "µg/mL"}, {"measurement": "MIC of ciprofloxacin in presence of compound", "setting": "[1]; compound concentration 50 μM", "value": 4, "unit": "µg/mL"}, {"measurement": "MEC4 (minimum effective concentration of compound that brings about 4 fold reduction in the MIC of Ciprofloxacin)", "setting": "[1]", "value": ">50", "unit": "µM"}]}, {"smiles": "C/C(=C\\C(=O)OCCCCCCCCC(=O)O)C[C@@H]1OC[C@H](C[C@@H]2O[C@H]2[C@@H](C)[C@H](C)O)[C@@H](O)[C@H]1O", "note": "[mupirocin, reference compound]", "values": [{"measurement": "MIC", "setting": "[2]; 24 h, read-out: MIC of mupirocin Alone, mupirocin alone, S. aureus Mupr-1, 24 hrs", "value": 256, "unit": "µg/mL"}]}, {"smiles": "CC[C@H]1OC(=O)[C@H](C)[C@@H](O[C@H]2C[C@@](C)(OC)[C@@H](O)[C@H](C)O2)[C@H](C)[C@@H](O[C@@H]2O[C@H](C)C[C@H](N(C)C)[C@H]2O)[C@](C)(O)C[C@@H](C)C(=O)[C@H](C)[C@@H](O)[C@]1(C)O", "note": "[Erythromycin, erythromycin, reference compound]", "values": [{"measurement": "MIC", "setting": "[3]; Staphylococcus aureus, 24 h, read-out: MIC of Erythromycin Alone", "value": 64, "unit": "µg/mL"}]}, {"smiles": "Cc1c(O)cc2oc3c(c(=O)c2c1O)-c1ccccc1OC3O", "note": "(centres unmarked) [Boeravinone B, 6,9,11-trihydroxy-10-methyl[1]benzopyrano[3,4-b][1]benzopyran-12(6H)-one]", "values": [{"measurement": "reduction of MIC of erythromycin", "setting": "[3]; [4]", "value": 4, "unit": "folds"}, {"measurement": "enhancement in antibacterial activity of erythromycin", "setting": "[3]; combination with erythromycin, MDR S. aureus, concentration not given", "value": 4, "unit": "folds"}, {"measurement": "MIC of Erythromycin in presence of compound", "setting": "[3]; compound concentration 0.7 μM", "value": 64, "unit": "µg/mL"}, {"measurement": "MIC of Erythromycin in presence of compound", "setting": "[3]; compound concentration 1.5 μM", "value": 64, "unit": "µg/mL"}, {"measurement": "MIC of Erythromycin in presence of compound", "setting": "[3]; compound concentration 3.12 μM", "value": 64, "unit": "µg/mL"}, {"measurement": "MIC of Erythromycin in presence of compound", "setting": "[3]; compound concentration 6.25 μM", "value": 64, "unit": "µg/mL"}, {"measurement": "MIC of Erythromycin in presence of compound", "setting": "[3]; compound concentration 12.5 μM", "value": 32, "unit": "µg/mL"}, {"measurement": "MIC of Erythromycin in presence of compound", "setting": "[3]; compound concentration 25 μM", "value": 16, "unit": "µg/mL"}, {"measurement": "MIC of Erythromycin in presence of compound", "setting": "[3]; compound concentration 50 μM", "value": 16, "unit": "µg/mL"}, {"measurement": "MEC4 (minimum effective concentration of boeravinone B that brings about 4 fold reduction in the MIC of erythromycin)", "setting": "[3]; in combination with erythromycin", "value": 25, "unit": "µM"}, {"measurement": "decrease of the MIC of ciprofloxacin", "setting": "[1]; at highest concentration (50 μM) of boeravinone B", "value": 8, "unit": "folds"}, {"measurement": "enhancement in antibacterial activity of ciprofloxacin", "setting": "[1]; combination with ciprofloxacin, MDR S. aureus, concentration not given", "value": 8, "unit": "folds"}, {"measurement": "MIC of ciprofloxacin in presence of compound", "setting": "[1]; compound concentration 0.7 μM", "value": 8, "unit": "µg/mL"}, {"measurement": "MIC of ciprofloxacin in presence of compound", "setting": "[1]; compound concentration 1.5 μM", "value": 8, "unit": "µg/mL"}, {"measurement": "MIC of ciprofloxacin in presence of compound", "setting": "[1]; compound concentration 3.12 μM", "value": 4, "unit": "µg/mL"}, {"measurement": "MIC of ciprofloxacin in presence of compound", "setting": "[1]; compound concentration 6.25 μM", "value": 4, "unit": "µg/mL"}, {"measurement": "MIC of ciprofloxacin in presence of compound", "setting": "[1]; compound concentration 12.5 μM", "value": 2, "unit": "µg/mL"}, {"measurement": "MIC of ciprofloxacin in presence of compound", "setting": "[1]; compound concentration 25 μM", "value": 1, "unit": "µg/mL"}, {"measurement": "MIC of ciprofloxacin in presence of compound", "setting": "[1]; compound concentration 50 μM", "value": 1, "unit": "µg/mL"}, {"measurement": "MEC4 (minimum effective concentration of compound that brings about 4 fold reduction in the MIC of Ciprofloxacin)", "setting": "[1]", "value": 12.5, "unit": "µM"}, {"measurement": "MIC", "setting": "[2]; read-out: MIC of mupirocin in presence of compound, compound concentration 0.7 μM", "value": 256, "unit": "µg/mL"}, {"measurement": "MIC", "setting": "[2]; read-out: MIC of mupirocin in presence of compound, compound concentration 1.5 μM", "value": 256, "unit": "µg/mL"}, {"measurement": "MIC", "setting": "[2]; read-out: MIC of mupirocin in presence of compound, compound concentration 3.12 μM", "value": 256, "unit": "µg/mL"}, {"measurement": "MIC", "setting": "[2]; read-out: MIC of mupirocin in presence of compound, compound concentration 6.25 μM", "value": 256, "unit": "µg/mL"}, {"measurement": "MIC", "setting": "[2]; read-out: MIC of mupirocin in presence of compound, compound concentration 12.5 μM", "value": 128, "unit": "µg/mL"}, {"measurement": "MIC", "setting": "[2]; read-out: MIC of mupirocin in presence of compound, compound concentration 25 μM", "value": 64, "unit": "µg/mL"}, {"measurement": "MIC", "setting": "[2]; read-out: MIC of mupirocin in presence of compound, compound concentration 50 μM", "value": 64, "unit": "µg/mL"}, {"measurement": "reduction of MIC of mupirocin", "setting": "[2]; [4]", "value": 4, "unit": "fold"}, {"measurement": "enhancement in antibacterial activity of mupirocin", "setting": "[2]; combination with mupirocin, MDR S. aureus, concentration not given", "value": 4, "unit": "folds"}, {"measurement": "MEC4 (minimum effective concentration of boeravinone B that brings about 4 fold reduction in the MIC of Mupirocin)", "setting": "[2]; in combination with mupirocin", "value": 25, "unit": "µM"}]}, {"smiles": "O=C(O)c1cn(C2CC2)c2cc(N3CCNCC3)c(F)cc2c1=O", "note": "[Ciprofloxacin, ciprofloxacin, reference compound]", "values": [{"measurement": "MIC", "setting": "[1]; Staphylococcus aureus, 24 h, read-out: MIC Ciprofloxacin Alone", "value": 8, "unit": "µg/mL"}]}]}
